Measured values published in patent publication US10745416B2, “Macrocyclic compounds for treating disease” (Turning Point Therapeutics, Inc., priority 2017, dated 2020).

Assays:
RET (M918T) = molecular target: T1, RET (M918T) (Homo sapiens, UniProt P07949, M918T); assay: Biochemical kinase assay (Reaction Biology, 33P ATP); settings: 10 μM ATP
T1 construct: purchased Reaction Biology Corporation (assay run at the CRO)
Description: (§1) The biochemical kinase assay was performed at Reaction Biology Corporation (www.reactionbiology.com, Malvern, Pa.) following the procedures described in the reference (Anastassiadis T, et al Nat Biotechnol. 2011, 29, 1039). Specific kinase/substrate pairs along with required cofactors were prepared in reaction buffer; 20 mM Hepes pH 7.5, 10 mM MgCl2, 1 mM EGTA, 0.02% Brij35, 0.02 mg/ml BSA, 0.1 mM Na3VO4, 2 mM DTIT, 1% DMSO. Compounds were delivered into the reaction, followed ˜20 minutes later by addition of a mixture of ATP (Sigma, St. Louis Mo.) and ^33P ATP (Perkin Elmer, Waltham Mass.) to a final concentration of 10 μM. Reactions were carried out at room temperature for 120 min, followed by spotting of the reactions onto P81 ion exchange filter paper (Whatman Inc., Piscataway, N.J.). Unbound phosphate was removed by extensive washing of filters in 0.75% phosphoric acid. […] IC50 values and curve fits were obtained using Prism (GraphPad Software).

RET (R749T) = molecular target: T2, RET (R749T) (Homo sapiens, UniProt P07949, R749T); assay: as above; settings: 10 μM ATP
T2 construct: purchased Reaction Biology Corporation (assay run at the CRO)
T2 sequence (P07949 29-1114 R749T): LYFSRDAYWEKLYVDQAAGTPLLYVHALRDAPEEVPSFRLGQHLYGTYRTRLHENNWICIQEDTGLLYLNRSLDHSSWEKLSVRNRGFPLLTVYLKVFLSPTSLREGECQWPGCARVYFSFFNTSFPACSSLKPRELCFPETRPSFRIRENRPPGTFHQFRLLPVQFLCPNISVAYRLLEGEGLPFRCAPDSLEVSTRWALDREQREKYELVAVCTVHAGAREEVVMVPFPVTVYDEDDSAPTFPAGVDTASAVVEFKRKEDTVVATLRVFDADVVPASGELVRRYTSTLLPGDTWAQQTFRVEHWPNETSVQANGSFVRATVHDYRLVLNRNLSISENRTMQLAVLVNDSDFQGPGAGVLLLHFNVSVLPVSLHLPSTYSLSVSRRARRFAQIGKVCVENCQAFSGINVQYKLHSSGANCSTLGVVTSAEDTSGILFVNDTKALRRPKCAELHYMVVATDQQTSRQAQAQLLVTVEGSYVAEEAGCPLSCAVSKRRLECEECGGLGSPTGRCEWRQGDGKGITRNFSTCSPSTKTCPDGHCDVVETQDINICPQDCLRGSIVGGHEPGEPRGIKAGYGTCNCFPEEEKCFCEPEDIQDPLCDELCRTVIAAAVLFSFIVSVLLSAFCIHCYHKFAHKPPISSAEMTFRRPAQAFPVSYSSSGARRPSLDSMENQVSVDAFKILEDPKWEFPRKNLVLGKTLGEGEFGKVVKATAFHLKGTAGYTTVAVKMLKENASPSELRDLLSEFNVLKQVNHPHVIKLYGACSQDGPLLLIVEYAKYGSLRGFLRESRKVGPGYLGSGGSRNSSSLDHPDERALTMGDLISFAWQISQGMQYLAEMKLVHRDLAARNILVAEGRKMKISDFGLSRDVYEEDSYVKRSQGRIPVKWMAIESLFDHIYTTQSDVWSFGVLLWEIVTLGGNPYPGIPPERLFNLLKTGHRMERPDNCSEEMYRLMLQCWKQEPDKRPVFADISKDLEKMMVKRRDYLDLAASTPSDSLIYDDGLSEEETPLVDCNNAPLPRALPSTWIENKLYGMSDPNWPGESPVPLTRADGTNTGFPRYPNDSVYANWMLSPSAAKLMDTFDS
Description: as §1

KG-1 = assay: Cell proliferation assay (CellTiter-Glo, 72 hours); format: cell-based, human; settings: Homo sapiens, KG-1, anti-cell proliferation
Summary of the method: (§2)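 Cells used were KG-1 (AML), TT medullary thyroid carcinoma ([…]) and KM12 colon (TPM3-TRKA). Viability was read by CellTiter-Glo ATP luminescence, and IC50 derived by curve fitting.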

KM12 cell (TPM3-TRKA) = assay: Cell proliferation assay (CellTiter-Glo, 72 hours); format: cell-based, human; settings: Homo sapiens, KM12, anti-cell proliferation
Summary of the method: as §2

TT cell (RET C634W) = assay: Cell proliferation assay (CellTiter-Glo, 72 hours); format: cell-based; settings: Homo sapiens, anti-cell proliferation
Description: Human medulla thyroid carcinoma cell line TT (containing RET […] mutation) and acute myelogenous cell line KG-1 were purchased from ATCC. Human colon cancer cell line KMI2 (containing TPM3-TRKA) was obtained from NCI.
Two thousand cells per well were seeded in 384 well white plate for 24 hrs, and then treated with compounds for 72 hours (37° C., 5% CO2). Cell proliferation was measured using CellTiter-Glo luciferase-based ATP detection assay (Promega) following the manufactures's protocol. IC50 determinations were performed using GraphPad Prism software (GraphPad, Inc., San Diego, Calif.).

BaF3 KIF5B-RET = molecular target: T3, BaF3 KIF5B-RET (Homo sapiens, UniProt P07949); assay: Cell proliferation assay (CellTiter-Glo, 72 hours); format: cell-based; settings: anti-cell proliferation, read-out: BaF3 KIF5B-RET IC50
T3 construct: fused on or other part: P33176 (Kinesin-1 heavy chain)
T3 sequence (P07949 whole entry, change not shown, the tested form may be a part): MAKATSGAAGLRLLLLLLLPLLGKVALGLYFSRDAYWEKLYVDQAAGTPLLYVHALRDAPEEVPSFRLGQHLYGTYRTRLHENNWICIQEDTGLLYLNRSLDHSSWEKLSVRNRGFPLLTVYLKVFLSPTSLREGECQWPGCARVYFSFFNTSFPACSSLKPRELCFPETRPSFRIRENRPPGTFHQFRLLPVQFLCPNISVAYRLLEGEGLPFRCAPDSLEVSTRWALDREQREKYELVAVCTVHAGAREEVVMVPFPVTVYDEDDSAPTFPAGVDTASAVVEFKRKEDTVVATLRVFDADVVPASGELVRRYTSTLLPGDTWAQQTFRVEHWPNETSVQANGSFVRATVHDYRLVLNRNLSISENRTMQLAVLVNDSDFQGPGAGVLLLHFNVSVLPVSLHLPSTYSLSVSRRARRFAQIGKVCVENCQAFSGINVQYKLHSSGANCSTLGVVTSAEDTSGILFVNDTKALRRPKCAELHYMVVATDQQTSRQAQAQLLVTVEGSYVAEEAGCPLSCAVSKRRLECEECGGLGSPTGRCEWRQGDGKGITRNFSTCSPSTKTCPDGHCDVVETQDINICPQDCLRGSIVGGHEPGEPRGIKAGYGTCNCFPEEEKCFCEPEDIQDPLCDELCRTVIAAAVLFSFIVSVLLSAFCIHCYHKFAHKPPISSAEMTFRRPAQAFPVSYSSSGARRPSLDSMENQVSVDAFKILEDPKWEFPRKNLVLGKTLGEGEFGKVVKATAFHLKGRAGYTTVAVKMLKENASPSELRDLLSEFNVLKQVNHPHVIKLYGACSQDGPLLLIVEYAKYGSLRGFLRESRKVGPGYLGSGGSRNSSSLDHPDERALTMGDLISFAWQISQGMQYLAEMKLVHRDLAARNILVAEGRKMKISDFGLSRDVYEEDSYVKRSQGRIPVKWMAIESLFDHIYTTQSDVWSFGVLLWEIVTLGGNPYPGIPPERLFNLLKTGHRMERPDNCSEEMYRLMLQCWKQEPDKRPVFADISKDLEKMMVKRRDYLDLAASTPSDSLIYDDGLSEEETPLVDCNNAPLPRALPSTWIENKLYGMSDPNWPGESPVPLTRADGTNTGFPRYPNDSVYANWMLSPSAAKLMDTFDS
Summary of the method: (§3)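 Ba/F3 cells were lentivirally transduced with wild-type or mutant KIF5B-RET, puromycin-selected and grown without IL-3. CellTiter-Glo ATP luminescence read viability, and IC50 values came from curve fitting.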

BaF3 KIF5B-RET_G810R = molecular target: T4, BaF3 KIF5B-RET_G810R (Homo sapiens, UniProt P07949, G810R, cells depend on it); assay: Cell proliferation assay (CellTiter-Glo, 72 hours); format: cell-based; settings: anti-cell proliferation, read-out: BaF3 KIF5B-RET_G810R IC50
T4 construct: fused on or other part: P33176 (Kinesin-1 heavy chain)
T4 sequence (P07949 whole entry G810R, the tested form may be a part): as the sequence (P07949 whole entry, change not shown, the tested form may be a part) above, with G810R counted along it

BaF3 KIF5B-RET_V804M = molecular target: T5, BaF3 KIF5B-RET_V804M (Homo sapiens, UniProt P07949, V804M, cells depend on it); assay: Cell proliferation assay (CellTiter-Glo, 72 hours); format: cell-based; settings: anti-cell proliferation, read-out: BaF3 KIF5B-RET_V804M IC50
T5 construct: fused on or other part: P33176 (Kinesin-1 heavy chain)
T5 sequence (P07949 whole entry V804M, the tested form may be a part): as the sequence (P07949 whole entry, change not shown, the tested form may be a part) above, with V804M counted along it
Summary of the method: as §3

RET = molecular target: T6, RET (Homo sapiens, UniProt P07949, C634W); assay: Immunoblotting for cellular RET phosphorylation in TT cells; format: cell-based; settings: 4 hours treatment, read-out: suppression of RET autophosphorylation IC50
T6 construct: host or cells: TT (human medullary thyroid carcinoma)
T6 sequence (P07949 29-1114 C634W): as the sequence (P07949 29-1114 R749T) above, with C606W, T721R counted along it
Description: Human medulla thyroid carcinoma cell line TT (containing RET […] mutation) and acute myelogenous cell line KG-1 were purchased from ATCC. Human colon cancer cell line KMI2 (containing TPM3-TRKA) was obtained from NCI. Half a million cells per well were seeded in 24 well plate for 24 hrs, and then treated with compounds for 4 hours. Cells were collected after treatment and lysed in RIPA buffer (50 mM Tris, pH 7.4, 150 mM NaCl, 1% NP-40, 0.5% Deoxycholate, 0.1% SDS) supplemented with 10 mM EDTA, 1× Halt protease and phosphatase inhibitors (Thermo Scientific). Protein lysates (approximately […]) was resolved on 4-12% Bolt Bis-Tris precasted gels with MES running buffer (Life Technologies), transferred to nitrocellulose membranes using Trans-Blot Turbo Transfer System (Bio-Rad) and detected with antibodies targeting phosphorylated RET (Y905) (Cell Signaling Technology), total RET (Cell Signaling Technology), actin (Cell Signaling Technology). Antibodies were typically incubated overnight at 4° C. with gentle shake, followed by washes and incubation with the appropriate HRP-conjugated secondary antibodies. […] The relative density of the chemiluminescent bands were quantified via Image Studio Digits from LICOR. The half inhibitory concentration (IC50) value is calculated using non-linear regression analysis through GraphPad Prism software (GraphPad, Inc., San Diego, Calif.).

T1 sequence (P07949 29-1114 M918T): as the sequence (P07949 29-1114 R749T) above, with T721R, M890T counted along it

Compound | IC50 (RET (M918T)) | IC50 (RET (R749T)) | IC50 (KG-1) | IC50 (KM12 cell (TPM3-TRKA)) | IC50 (TT cell (RET C634W)) | GI50 (BaF3 KIF5B-RET) | GI50 (BaF3 KIF5B-RET_G810R) | GI50 (BaF3 KIF5B-RET_V804M) | IC50 (RET)
C[C@H]1CNC(=O)c2cnn3cc4c(nc23)N(Cc2cc(F)ccc2O1)[C@@H]1CCC[C@@H]1O4 [Compound 1, (3aR,11S,20aS)-7-fluoro-11-methyl-2,3,3a,12,13,20a-hexahydro-1H,5H-17-19-(metheno)cyclopenta[5,6][1,4] oxazino[3,4-i]pyrazolo[4,3-f][1,4,8,10]benzoxatriacyclotridecin-14(11H)-one] | 0.114 nM | 0.271 nM | 131 nM | 3 nM | < 0.5 nM | 0.25 nM | 30 nM | 1000 nM | 
C[C@H]1CNC(=O)c2cnn3cc4c(nc23)N(Cc2cc(F)cnc2O1)[C@@H]1CCC[C@@H]1O4 [Compound 5, (3aR,11S,20aS)-7-fluoro-11-methyl-2,3,3a,12,13,20a-hexahydro-1H,5H-17-19-(metheno)cyclopenta[5,6][1,4] oxazino[3,4-i]pyrazolo[4,3-f]pyrido[3,2-l][1,4,8,10]oxatriazacyclotridecin-14(11H)-one] | 1.42 nM | 0.32 nM | 26.8 nM | 6.9 nM | 0.9 nM | 2.4 nM | 22 nM | 598 nM | ~0.3 nM
